From US10385050B2, “Indolin-2-one and 1,3-dihydro-pyrrolo[3,2-c]pyridin-2-one derivatives” (Hoffmann-La Roche Inc., priority 2014, dated 2019)

What was measured:
[1] = test system: L-687,414-induced hyperlocomotion; assay: Reversal of L-687,414-induced hyperlocomotion (Digiscan locomotor activity); type: in vivo, mouse; conditions: for ID50 po: dose producing 50% inhibition of L-687,414-induced hyperlocomotion, p.o. 15 min before s.c. 50 mg/kg L-687,414, doses 1-3-10 (Expl. 2: 3-10-30) mg/kg; for inhibition in vivo at 30 mg/kg: Mus musculus, 0.5 h, dose ip 30 mg/kg at the same time as s.c. 50 mg/kg L-687,414, horizontal activity over 30 min
Excerpt: The authors described that hyperlocomotion induced by L-687,414 was inhibited by a series of known antipsychotic drugs. […] These findings predict antipsychotic activity for the present compounds, making them useful for the treatment of positive (psychosis) and negative symptoms of schizophrenia, substance abuse, alcohol and drug addiction, obsessive-compulsive disorders, cognitive impairment, bipolar disorders, mood disorders, major depression, resistant depression, anxiety disorders, Alzheimer's disease, autism, Parkinson's disease, chronic pain, borderline personality disorder, sleep disturbances, chronic fatigue syndrome, stiffness, antiinflammatory effects in arthritis and balance problems.
The described compounds of formula I reduce L-687,414-induced hyperlocomotion. This was assessed by using a computerized Digiscan 16 Animal Activity Monitoring System (Omnitech Electronics, Columbus, Ohio) to quantify locomotor activity. Animals were kept under a 12 h light/dark cycle and experiments were performed during the light period. Each activity monitoring chamber consisted of a Plexiglas box (41×41×28 cm; W×L×H) with sawdust bedding on the floor surrounded by invisible horizontal and vertical infrared sensor beams. The test boxes were divided by a Plexiglas cross providing each mouse with 20×20 cm of moving space. Cages were connected to a Digiscan Analyzer linked to a computer that constantly collected the beam status information. Records of photocell beam interruptions for individual animals were taken every 5 min over the duration of the experimental session and the sum of the first 6 periods was used as the final parameter. Compounds were administered either p.o. 15 min before a s.c. injection of 50 mg/kg of L-687,414, or i.p. at the same time as a s.c. injection of 50 mg/kg of L-687,414. Mice were then transferred from their home cage to the recording chambers for a 15-min habituation phase allowing free exploration of the new environment. Horizontal activity was then recorded for a 30-min time period. The % inhibition of L-687,414-induced hyperlocomotion was calculated according to the equation: ((Veh+L-687,414 horizontal activity−drug+L-687,414 horizontal activity)/Veh+L−687,414 horizontal activity)×100
ID50 values, defined as doses of each compound producing 50% inhibition of L-687,414-induced hyperlocomotion, were calculated by linear regression analysis of a dose-response data using an Excel-based computer-fitting program.
As data was not presupposed to be normally distributed, groups treated with test compounds were statistically compared with the control (vehicle-treated) group using one-tailed Mann Whitney U tests. In statistics, the Mann-Whitney U test (also called the Mann-Whitney-Wilcoxon (MWW) or Wilcoxon rank-sum test) is a non-parametric statistical hypothesis test for assessing whether one of two samples of independent observations tends to have larger values than the other. It is one of the most well-known non-parametric significance tests. […] P values given in table 1 are one-tailed since only decreases in locomotion were expected and tested for (Mann, H. B., Whitney, D. R. (1947), “On a Test of Whether one of Two Random Variables is Stochastically Larger than the Other”, Annals of Mathematical Statistics, 18 (1), 50-60).

[2] = test system: behaviors of compound-treated mice; assay: SmartCube behavioral signature and similarity analysis to atypical antipsychotics; type: in vivo, mouse; conditions: 25 mg/kg i.p.; for SmartCube signature (class similarity): FIG. 1; for Similarity analysis: discrimination rate vs Clozapine / Similarity analysis: discrimination rate vs Olanzapine / Similarity analysis: discrimination rate vs Risperidone: rate of 0.70 or lower = similar, 0.5 = zero distinguishability
Excerpt: In addition to the reversal of L-687,414 induced hyperlocomotion experiment as described above, some compounds of the present invention have been tested in SmartCube®, an automated system in which the behaviors of compound-treated mice in response to multiple challenges are captured by digital video and analyzed with computer algorithms (Roberds et al., Frontiers in Neuroscience, 2011, Vol. 5, Art. 103, 1-4). In this way, the neuro-pharmacological effects of a test compound can be predicted by similarity to major classes of compounds, such as antipsychotics, anxiolytics and antidepressants.
As mentioned above, some compounds have been tested in SmartCube®, an analytical system developed by PsychoGenics Inc.
SmartCube® was used to compare the behavioral signature of a test compound to a database of behavioral signatures obtained from a large set of clinically approved reference drugs, grouped per indications. In this way, the neuro-pharmacological effects of a test compound can be predicted by similarity to major classes of compounds, such as antipsychotics, anxiolytics and antidepressants. This approach is ideally suited to screen collections of existing drugs or drug candidates with previously unknown neuropharmacology, which could expedite the development of new and unexpected treatments for psychiatric disorders.
Some compounds of the present invention were injected i.p. at different doses 15 minutes before the test. At least 8 mice were used in each treatment group. Digital videos of the subjects were processed with computer vision algorithms to extract over 2000 dependent measures including frequency and duration of many different behavioral states. The results of the classifications are presented as bar charts for each compound and dose (mg/kg), the Y-axis indicates the relative probability that the test compound will show efficacy in the specific CNS indication.
Compounds of the present invention show similar signatures to those of atypical antipsychotics. An independent analysis was performed on the unclassified data to determine the similarity of the example compounds to active doses of known atypical antipsychotics. For this analysis, we use discrimination rate as the measure of separability between the two drugs, i.e. one drug's “distinguishability” from another. A rate equal to 50% (or 0.5) corresponds to zero distinguishability. […] In most cases, the example compounds show a similarity to risperidone, clozapine and olanzapine with a discrimination rate of ≤0.70.

For `Cc1cc(-c2ncc(-c3ccc4c(c3)NC(=O)C4(C)C)o2)ccn1` [Example 35, 3,3-Dimethyl-6-(2-(2-methylpyridin-4-yl)oxazol-5-yl)indolin-2-one], the ID50 po [1] was 5.82 mg/kg, the “SmartCube signature (class similarity)” value [2] was “similarity to atypical antipsychotics” and the “Similarity analysis: discrimination rate vs Clozapine” value (“Similarity analysis … vs Clozapine” below) [2] was 0.69. The “Similarity analysis: discrimination rate vs Olanzapine” value (“Similarity analysis … vs Olanzapine” below) [2] was 0.75 and the “Similarity analysis: discrimination rate vs Risperidone” value (“Similarity analysis … vs Risperidone” for short) [2] was 0.60.
`CC1(C)C(=O)Nc2cc(-c3cn(-c4cccnc4)cn3)ccc21` [Example 93, 3,3-Dimethyl-6-(1-(pyridin-3-yl)-1H-imidazol-4-yl)indolin-2-one] was tested, and the “SmartCube signature (class similarity)” value [2] was “similarity to atypical antipsychotics”, the “Similarity analysis … vs Clozapine” value [2] was 0.63 and the “Similarity analysis … vs Olanzapine” value [2] was 0.68. For the same compound, the “Similarity analysis … vs Risperidone” value [2] was 0.60.
Compound `CN1C(=O)C(C)(C)c2ccc(-n3cc(-c4ccncc4)nn3)cc21` [Example 57, 1,3,3-Trimethyl-6-(4-(pyridin-4-yl)-1H-1,2,3-triazol-1-yl)indolin-2-one] has an inhibition in vivo at 30 mg/kg [1] of 89.2%.
For `CC1(C)C(=O)N(CCO)c2cc(-c3cn(-c4ccncc4F)cn3)ccc21` [Example 130, 6-[1-(3-Fluoro-4-pyridyl)imidazol-4-yl]-1-(2-hydroxyethyl)-3,3-dimethyl-indolin-2-one], the inhibition in vivo at 30 mg/kg [1] was 74.5%.
`CN1C(=O)C(C)(C)c2ccc(-c3cnc(-c4ccncc4)[nH]3)cc21` [Example 3, 1,3,3-Trimethyl-6-(2-(pyridin-4-yl)-1H-imidazol-5-yl)indolin-2-one] was tested, and the inhibition in vivo at 30 mg/kg [1] was 58.9%.
With `CC1(C)C(=O)N(C2CC2)c2cc(-c3cnc(-c4ccncc4)o3)ccc21` [Example 10, 1-Cyclopropyl-3,3-dimethyl-6-(2-(pyridin-4-yl)oxazol-5-yl)indolin-2-one] the inhibition in vivo at 30 mg/kg [1] was 78.8%.
For `Cc1cccc(-n2cnc(-c3ccc4c(c3)NC(=O)C4(C)C)c2)n1` [Example 123, 3,3-Dimethyl-6-(1-(6-methylpyridin-2-yl)-1H-imidazol-4-yl)indolin-2-one], the inhibition in vivo at 30 mg/kg [1] was 30.6%.
`Cc1cc(-c2nnc(-c3ccc4c(c3)N(C3COC3)C(=O)C4(C)C)o2)ccn1` [Example 49, 3,3-Dimethyl-6-(5-(2-methylpyridin-4-yl)-1,3,4-oxadiazol-2-yl)-1-(oxetan-3-yl)indolin-2-one] was tested, and the ID50 po [1] was 5.02 mg/kg.
`CC1(C)C(=O)Nc2cc(-n3cnc(-c4ccncc4)c3)ccc21` [Example 47, 3,3-Dimethyl-6-(4-(pyridin-4-yl)-1H-imidazol-1-yl)indolin-2-one] was tested, and the “SmartCube signature (class similarity)” value [2] was “similarity to atypical antipsychotics”, the “Similarity analysis … vs Clozapine” value [2] was 0.70 and the “Similarity analysis … vs Olanzapine” value [2] was 0.68. For the same compound, the “Similarity analysis … vs Risperidone” value [2] was 0.64.
Compound `Cc1cc(-n2cnc(-c3ccc4c(c3)N(c3cn(C)cn3)C(=O)C4(C)C)c2)ccn1` [Example 111, 3,3-Dimethyl-1-(1-methylimidazol-4-yl)-6-[1-(2-methyl-4-pyridyl)imidazol-4-yl]indolin-2-one] has an inhibition in vivo at 30 mg/kg [1] of 55.1%.
`CC1(C)C(=O)N(C2CC2)c2cc(-c3cnc(-c4cccnc4)o3)ccc21` [Example 8, 1-Cyclopropyl-3,3-dimethyl-6-(2-(pyridin-3-yl)oxazol-5-yl)indolin-2-one] showed an inhibition in vivo at 30 mg/kg [1] of 80.5%.
With `Cc1cnccc1-n1cnc(-c2ccc3c(c2)N(C2CC2)C(=O)C3(C)C)c1` [Example 89, 1-Cyclopropyl-3,3-dimethyl-6-(1-(3-methylpyridin-4-yl)-1H-imidazol-4-yl)indolin-2-one] the inhibition in vivo at 30 mg/kg [1] was 58.5%.
`CC1(C)C(=O)Nc2cc(-n3cc(-c4cccnc4)cn3)ccc21` [Example 51, 3,3-Dimethyl-6-(4-(pyridin-3-yl)-1H-pyrazol-1-yl)indolin-2-one] was tested, and the inhibition in vivo at 30 mg/kg [1] was 61%.
With `Cc1ccc(N2C(=O)C(C)(C)c3ccc(-c4cn(-c5ccncc5C)cn4)cc32)cn1` [Example 105, 3,3-Dimethyl-1-(6-methyl-3-pyridyl)-6-[1-(3-methyl-4-pyridyl)imidazol-4-yl]indolin-2-one] the inhibition in vivo at 30 mg/kg [1] was 40.6%.
`CC1(C)C(=O)N(C2CC2)c2cc(-c3cn(-c4ccncc4F)cn3)ccc21` [Example 76, 1-Cyclopropyl-6-(1-(3-fluoropyridin-4-yl)-1H-imidazol-4-yl)-3,3-dimethylindolin-2-one] was tested, and the ID50 po [1] was less than 1 mg/kg.
`Cc1cc(-c2cnc(-c3ccc4c(c3)N(C3CC3)C(=O)C4(C)C)o2)ccn1` [Example 19, 1-Cyclopropyl-3,3-dimethyl-6-(5-(2-methylpyridin-4-yl)oxazol-2-yl)indolin-2-one] was tested, and the inhibition in vivo at 30 mg/kg [1] was 55.9%.
Work on `CN1C(=O)C(C)(C)c2ccc(-c3ncc(-c4ccccc4)[nH]3)cc21` [Example 2, 1,3,3-Trimethyl-6-(5-phenyl-1H-imidazol-2-yl)indolin-2-one] yielded an ID50 po [1] of 10.71 mg/kg.
For `Cc1cc(-n2cnc(-c3ccc4c(c3)N(C)C(=O)C4(C)C)c2)ccn1` [Example 62, 1,3,3-Trimethyl-6-(1-(2-methylpyridin-4-yl)-1H-imidazol-4-yl)indolin-2-one], the ID50 po [1] was 8.8 mg/kg, the “SmartCube signature (class similarity)” value [2] was “similarity to atypical antipsychotics” and the “Similarity analysis … vs Clozapine” value [2] was 0.59. The “Similarity analysis … vs Olanzapine” value [2] was 0.62 and the “Similarity analysis … vs Risperidone” value [2] was 0.58.
With `COc1cnccc1-c1ncc(-c2ccc3c(c2)NC(=O)C3(C)C)o1` [Example 63, 6-(2-(3-Methoxypyridin-4-yl)oxazol-5-yl)-3,3-dimethylindolin-2-one] the inhibition in vivo at 30 mg/kg [1] was 75%.
In the case of `Cc1cnc(-n2cnc(-c3ccc4c(c3)N(C3CC3)C(=O)C4(C)C)c2)nc1` [Example 118, 1-Cyclopropyl-3,3-dimethyl-6-(1-(5-methylpyrimidin-2-yl)-1H-imidazol-4-yl)indolin-2-one], the inhibition in vivo at 30 mg/kg [1] is reported as 50.3%.
